Source: patent US4127687A, “Prevention of fouling of marine structures such as boat hulls” (Rohm and Haas Company, priority 1976, dated 1978)
Converted amounts (≈) assume the structure as drawn.

Assays:
Hydroids = assay: Membrane test, hydroids (Table 1 footnote d); format: in vivo; design: key: Effective against Hydroids
Source text: 1). FIELD TESTS: - Membrane Diffusion Raft Trials
A known quantity of the test compound is placed into a cylindrical plastic container whose open end is then covered with a membrane of known porosity; the complete unit is attached to the appropriate raft panel so that the poison can freely diffuse into the free water layer around it. Regular inspections, recording time and quantity of settlement, allow a life history of each membrane trial to be constructed. Each raft panel contains 35 compounds to be evaluated together with 4 standard poisons and 1 non-toxic membrane for control.
The behavior on the raft can thus be compared with that of the standard poisons and the non-toxic control. At normal loading a membrane over the standard poisons would be free from macro-fouling after six months immersion. Compounds showing selective effects against restricted groups of fouling organisms also show up by membrane testing.
^d Effective against Hydroids.

[1] = Water solubility by UV spectrophotometric method; format: physicochemical; details: water, saturated solution; Table 1; read-out: Solubility by UV method
Procedure, shortened: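 Molar absorptivity determined from UV absorbance of a known-concentration aqueous solution at λmax (10 cm cell). Saturated solution prepared by stirring excess compound in deionized water ~72 hrs, filtered, diluted to mid-scale absorbance; solubility calculated from absorbance using that absorptivity.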

weed [2] = assay: Membrane Diffusion Raft Trials, weed control; format: in vivo, grass-like algal growth common in sea water; details: membrane test, average 15 to 16 weeks of immersion
Procedure, shortened: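 Field raft test in sea water: known quantity of compound in container sealed with membrane of known porosity, diffusing into surrounding water; panels at waterline (illuminated, aerated) and flats (poorly lit, deeper). Fouling settlement inspected over about 15-16 weeks average immersion; scored 0 none, + some, ++ effective.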

[3] = Amount of toxicant remaining in the test container after membrane diffusion raft tests; format: physicochemical; design: key: 0: empty or trace; +: some; + +: ample; details: after completion of membrane diffusion raft tests
Procedure, shortened: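 Known amount of compound held in a cylindrical container sealed with a membrane of known porosity, fixed to a raft panel so toxicant diffuses into the surrounding water. Each panel carries 35 test compounds, 4 standard poisons and 1 non-toxic membrane control. After the trial, container contents inspected visually for remaining toxicant (0 = empty or trace).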

barnacle = assay: Membrane Diffusion Raft Trials, barnacle control; format: in vivo, barnacles; details: membrane test, average 15 to 16 weeks of immersion
Procedure, shortened: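 Test compound held in a plastic container sealed by a porous membrane, diffusing into surrounding seawater on raft panels alongside standard poisons and a non-toxic control membrane. Settlement timed and quantified by regular inspection; scored 0 (none), + (some) or ++ (effective), averaging 15 to 16 weeks' immersion.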

Enteromorpha spores = assay: Laboratory toxicity test (Lab Bioassay) with Enteromorpha spores; format: in vivo; details: using Enteromorpha spores
Procedure, shortened: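 Enteromorpha spores (zoospores or gametes) exposed to test compounds in laboratory toxicity tests. LD50 values expressed as percentage saturated solution.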

weed [4] = assay: Paint panel / plaque tests against weed (Table 2); format: in vivo, grass-like algal growth common in sea water; design: key: high performance; medium performance; low performance; poor or unacceptable performance; details: April to November, 1975
Source text: (3) PAINT FORMULATION AND TEST PANEL OR PLAQUE TESTS
In order to evaluate the compound under practical conditions, weighed quantities of promising compounds are ground in standard volumes of a selected range of paint media and brushed out on plaques for marine immersion.
The anti-fouling paint formulations used is exemplified by the following: […]
The most preferred specific compounds were utilized in paints including vinyl chloride-vinyl acetate copolymers, chlorinated rubber, acrylic emulsions, and conventional paints with or without rosin to contain 20% by weight of biocide in the wet film and in some cases (Example 144 and Example 145) with concentrations of 5, 10, and 15% based on the wet film. Each of the compounds is also described in the membrane tests noted above. The paints were applied at normal thicknesses to plaques or panels of 10 centimeters by 10 centimeters which were immersed in various positions as described for the raft noted above. The compounds and results, as against weed, in the season April to November, 1975, are as follows: […]

Row | SMILES | Effective against Hydroids (footnote mark d) (Hydroids) | solubility [1] [µg/mL] | Weed Control (weed [2]) | Contents at the end of test (amount of toxicants remaining in the test container) [3] | Barnacle Control (barnacle) | Lab Bioassay LD50 (Enteromorpha spores) | Effectiveness in paint CONV (conventional anti-fouling formulation) (weed [4]) | Effectiveness in paint CR (chlorinated rubber) (weed [4]) | Effectiveness in paint EM (acrylic emulsion) (weed [4]) | Effectiveness in paint V (polyvinyl chloride-acetate) (weed [4]) | Effectiveness in paint V/R (vinyl/rosin) (weed [4])
1 | CCCCCCCCn1sc(Cl)cc1=O [Example 16] | d | 66 (≈ 266 µM) | + + | 0 | + + | – | – | – | – | – | –
2 | CCCCCCCCCCn1sc(Cl)cc1=O [Example 22] | d | 7.2 (≈ 26.1 µM) | + + | 0 | + + | – | – | – | – | – | –
3 | CCCCCCCCn1sc(Cl)c(Cl)c1=O [Example 57] | d | 2.3 (≈ 8.15 µM) | + + | + + | + + | 0.001 percentage saturated solution | m | h | h | h | h
4 | CCCCCCCCn1sc(Cl)c(Br)c1=O [Example 88] | d | 2.6 (≈ 7.96 µM) | + + | + | + + | – | – | – | – | – | –
